Where two headings read alike, the source gives them in different places. Where a SMILES comes first, the peptide text is derived from it.
What was measured:
human GLP-1 receptor = target: T1, human GLP-1 receptor (Homo sapiens, UniProt P43220); test: GLP-1 receptor potency assay (cAMP ALPHASCREEN, HEK293 cells stably expressing GLP-1 R); assay type: cell-based; settings: cAMP response, HEK293 cells expressing human GLP-1 R
T1 construct: expressed in transfected cells
Summary of the method: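 Clonal HEK293 line stably transfected with human GLP-1R (G418-selected) was treated with test compounds and the cAMP response quantified by ALPHASCREEN. Signals were normalized to positive control and vehicle, with EC50 and maximal response taken from concentration-response curves.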

human GLP-2 receptor = target: T2, human GLP-2 receptor (Homo sapiens, UniProt O95838, D470N); test: GLP-2 receptor potency assay (cAMP ALPHASCREEN, HEK293 cells stably expressing GLP-2 R); assay type: cell-based; settings: cAMP response, HEK293 cells expressing human GLP-2 R; read-out: EC50 GLP-2
T2 construct: expressed in transfected cells
T2 sequence (O95838 1-553 D470N): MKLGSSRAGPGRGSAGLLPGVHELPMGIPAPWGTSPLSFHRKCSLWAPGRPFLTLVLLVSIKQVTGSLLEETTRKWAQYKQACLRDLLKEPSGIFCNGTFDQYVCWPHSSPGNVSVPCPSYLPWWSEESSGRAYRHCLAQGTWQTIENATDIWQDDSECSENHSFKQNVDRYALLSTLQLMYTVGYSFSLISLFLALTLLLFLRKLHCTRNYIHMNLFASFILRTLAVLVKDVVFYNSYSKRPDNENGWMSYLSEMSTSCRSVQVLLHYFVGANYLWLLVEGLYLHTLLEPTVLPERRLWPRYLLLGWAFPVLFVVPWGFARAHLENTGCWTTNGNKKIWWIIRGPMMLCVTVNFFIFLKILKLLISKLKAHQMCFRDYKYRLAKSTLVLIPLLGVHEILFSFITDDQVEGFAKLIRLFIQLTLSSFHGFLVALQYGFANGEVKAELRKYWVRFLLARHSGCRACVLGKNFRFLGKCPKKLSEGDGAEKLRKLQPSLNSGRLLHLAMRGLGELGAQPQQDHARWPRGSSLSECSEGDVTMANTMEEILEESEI
Summary of the method: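 HEK293 clones stably transfected with the human GLP-2 receptor, selected with G418, were used. Intracellular cAMP was quantified by AlphaScreen. Responses were normalised to positive and vehicle controls, and EC50 and maximal response were taken from concentration-response curves.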

[1] = Solubility assessment (turbidity absorbance at 325 nm); assay type: physicochemical
Summary of the method: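 Peptide stock at 2 mg/ml in water at pH 2.5 diluted 1:1 into 100 mM acetate (pH 4.0, 5.0), histidine (pH 6.0, 7.0) or phosphate (pH 6.0, 7.0, 7.5) buffer. Absorbance at 280 and 325 nm read at ambient temperature (typically 25 °C), single samples (n=1).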

[2] = Chemical stability (RP-HPLC normalized purity after incubation at 40° C.); assay type: physicochemical; settings: 14-day incubation, 0.2 mg/ml, normalized purity (area-%); for pH 6 normalized stability: pH 6, 40° C.; for pH 7 normalized stability: pH 7, 40° C.
Summary of the method: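 Peptide at 0.2 mg/ml final in water adjusted to pH 6, 7, 7.5 or 9, incubated at 40° C for 14 days. Purity measured as main-peak area-% by C18 RP-HPLC (acetonitrile/TFA/water gradient, UV 220 nm) and normalized to T=0 set at 100 for each pH.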

T1 sequence (P43220 24-463): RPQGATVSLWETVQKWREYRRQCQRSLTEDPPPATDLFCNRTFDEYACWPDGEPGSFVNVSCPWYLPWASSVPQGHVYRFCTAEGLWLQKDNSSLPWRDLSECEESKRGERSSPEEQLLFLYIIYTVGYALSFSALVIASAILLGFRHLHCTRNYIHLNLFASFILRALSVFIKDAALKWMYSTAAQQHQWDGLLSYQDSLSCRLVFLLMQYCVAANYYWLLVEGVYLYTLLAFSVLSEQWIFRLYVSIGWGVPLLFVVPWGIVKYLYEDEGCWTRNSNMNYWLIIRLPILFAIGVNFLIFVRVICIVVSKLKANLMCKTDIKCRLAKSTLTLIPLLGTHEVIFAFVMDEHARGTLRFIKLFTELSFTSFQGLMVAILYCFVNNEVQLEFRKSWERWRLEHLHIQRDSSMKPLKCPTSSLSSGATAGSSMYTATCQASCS

SMILES	EC50 (human GLP-1 receptor) [nM]	EC50 (human GLP-2 receptor) [nM]	solubility ([1]; 100 mM acetate buffer pH 4.0, ambient temperature, read-out: Solubility Acetate buffer pH 4) [mg/mL]	solubility ([1]; 100 mM acetate buffer pH 5.0, ambient temperature, read-out: Solubility Acetate buffer pH 5) [mg/mL]	solubility ([1]; 100 mM histidine buffer pH 6.0, ambient temperature, read-out: Solubility Histidine buffer pH 6) [mg/mL]	solubility ([1]; 100 mM histidine buffer pH 7.0, ambient temperature, read-out: Solubility Histidine buffer pH 7) [mg/mL]	solubility ([1]; 100 mM phosphate buffer pH 6.0, ambient temperature, read-out: Solubility Phosphate buffer pH 6) [mg/mL]	solubility ([1]; 100 mM phosphate buffer pH 7.0, ambient temperature, read-out: Solubility Phosphate buffer pH 7) [mg/mL]	solubility ([1]; 100 mM phosphate buffer pH 7.5, ambient temperature, read-out: Solubility Phosphate buffer pH 7.5) [mg/mL]	pH 6 normalized stability [2]	pH 7 normalized stability [2]
CC[C@H](C)[C@H](NC(=O)[C@H](CC(C)C)NC(=O)[C@H](Cc1c[nH]c2ccccc12)NC(=O)[C@H](C)NC(=O)[C@@H](NC(=O)[C@H](Cc1ccccc1)NC(=O)[C@H](CC(=O)O)NC(=O)[C@H](CCCNC(=N)N)NC(=O)[C@H](C)NC(=O)[C@H](C)NC(=O)[C@H](CCC(N)=O)NC(=O)[C@H](CCCCNC(=O)CC[C@H](NC(=O)CCCCCCCCCCCCCCCCC(=O)O)C(=O)O)NC(=O)[C@H](CC(=O)O)NC(=O)[C@H](CC(C)C)NC(=O)[C@@H](NC(=O)[C@@H](NC(=O)[C@H](C)NC(=O)[C@H](CC(C)C)NC(=O)[C@H](CCC(=O)O)NC(=O)[C@H](CO)NC(=O)[C@@H](NC(=O)[C@H](Cc1ccccc1)NC(=O)[C@@H](NC(=O)CNC(=O)[C@H](CCC(=O)O)NC(=O)C(C)(C)NC(=O)[C@@H](N)Cc1c[nH]cn1)[C@@H](C)O)[C@@H](C)O)[C@@H](C)O)[C@@H](C)CC)[C@@H](C)CC)C(=O)N[C@@H](C)C(=O)N[C@@H](Cc1c[nH]cn1)C(=O)N[C@@H](CCCCN)C(=O)N[C@H](C(=O)N[C@H](C(=O)N[C@@H](CC(=O)O)C(=O)O)[C@@H](C)O)[C@@H](C)CC [Compound 23] (HELM PEPTIDE1{H.[Aib].E.G.T.F.T.S.E.L.A.T.I.L.D.K.Q.A.A.R.D.F.I.A.W.L.I.A.H.K.I.T.D}|PEPTIDE2{[O=C(O)CCCCCCCCCCCCCCCCC(=O)[*:2]].[gGlu]}$PEPTIDE1,PEPTIDE2,16:R3-2:R2$$$V2.0)	0.13	0.24	< 1	< 1	≥ 1	≥ 1	≥ 1	≥ 1	≥ 1	A (>90% normalised stability)	B (>80% stability)
CC[C@H](C)[C@H](NC(=O)[C@H](Cc1ccccc1)NC(=O)[C@H](CC(=O)O)NC(=O)[C@H](CCCNC(=N)N)NC(=O)[C@H](C)NC(=O)[C@H](C)NC(=O)[C@H](CCC(N)=O)NC(=O)[C@H](CCCCNC(=O)CC[C@H](NC(=O)CCCCCCCCCCCCCCCCC(=O)O)C(=O)O)NC(=O)[C@H](CC(=O)O)NC(=O)[C@H](CC(C)C)NC(=O)[C@@H](NC(=O)[C@@H](NC(=O)[C@H](C)NC(=O)[C@H](CC(C)C)NC(=O)[C@H](CCC(=O)O)NC(=O)[C@H](CO)NC(=O)[C@@H](NC(=O)[C@H](Cc1ccccc1)NC(=O)[C@H](CO)NC(=O)CNC(=O)[C@H](CCC(=O)O)NC(=O)C(C)(C)NC(=O)[C@@H](N)Cc1c[nH]cn1)[C@@H](C)O)[C@@H](C)O)[C@@H](C)CC)C(=O)N[C@@H](C)C(=O)N[C@@H](Cc1c[nH]c2ccccc12)C(=O)N[C@@H](CC(C)C)C(=O)N[C@H](C(=O)N[C@@H](CCCNC(=N)N)C(=O)N[C@@H](Cc1c[nH]cn1)C(=O)N[C@@H](CCCCN)C(=O)N[C@H](C(=O)N[C@H](C(=O)N[C@@H](CC(=O)O)C(=O)O)[C@@H](C)O)[C@@H](C)CC)[C@@H](C)CC [Compound 30] (HELM PEPTIDE1{H.[Aib].E.G.S.F.T.S.E.L.A.T.I.L.D.K.Q.A.A.R.D.F.I.A.W.L.I.R.H.K.I.T.D}|PEPTIDE2{[O=C(O)CCCCCCCCCCCCCCCCC(=O)[*:2]].[gGlu]}$PEPTIDE1,PEPTIDE2,16:R3-2:R2$$$V2.0)	0.31	0.38	–	–	–	–	–	–	–	–	A (>90% normalised stability)
CC[C@H](C)[C@H](NC(=O)[C@H](Cc1ccccc1)NC(=O)[C@H](CC(=O)O)NC(=O)[C@H](CCCNC(=N)N)NC(=O)[C@H](C)NC(=O)[C@H](C)NC(=O)[C@H](CCC(N)=O)NC(=O)[C@H](CCCCNC(=O)CC[C@H](NC(=O)CCCCCCCCCCCCCCCCC(=O)O)C(=O)O)NC(=O)[C@H](CC(=O)O)NC(=O)[C@H](CC(C)C)NC(=O)[C@@H](NC(=O)[C@@H](NC(=O)[C@H](C)NC(=O)[C@H](CC(C)C)NC(=O)[C@H](CCC(=O)O)NC(=O)[C@H](CO)NC(=O)[C@@H](NC(=O)[C@H](Cc1ccccc1)NC(=O)[C@H](CO)NC(=O)CNC(=O)[C@H](CCC(=O)O)NC(=O)C(C)(C)NC(=O)[C@@H](N)Cc1c[nH]cn1)[C@@H](C)O)[C@@H](C)O)[C@@H](C)CC)C(=O)N[C@@H](C)C(=O)N[C@@H](Cc1c[nH]c2ccccc12)C(=O)N[C@@H](CC(C)C)C(=O)N[C@H](C(=O)N[C@@H](CO)C(=O)N[C@@H](Cc1c[nH]cn1)C(=O)N[C@@H](CCCCN)C(=O)N[C@H](C(=O)N[C@H](C(=O)N[C@@H](CC(=O)O)C(=O)O)[C@@H](C)O)[C@@H](C)CC)[C@@H](C)CC [Compound 31] (HELM PEPTIDE1{H.[Aib].E.G.S.F.T.S.E.L.A.T.I.L.D.K.Q.A.A.R.D.F.I.A.W.L.I.S.H.K.I.T.D}|PEPTIDE2{[O=C(O)CCCCCCCCCCCCCCCCC(=O)[*:2]].[gGlu]}$PEPTIDE1,PEPTIDE2,16:R3-2:R2$$$V2.0)	0.27	0.24	–	–	–	–	–	–	–	A (>90% normalised stability)	A (>90% normalised stability)
CC[C@H](C)[C@H](NC(=O)[C@H](Cc1ccccc1)NC(=O)[C@H](CC(=O)O)NC(=O)[C@H](CCCNC(=N)N)NC(=O)[C@H](C)NC(=O)[C@H](C)NC(=O)[C@H](CCC(N)=O)NC(=O)[C@H](CCCCNC(=O)[C@H](CCCCN)NC(=O)[C@H](CCC(=O)O)NC(=O)[C@H](CCCCN)NC(=O)CC[C@H](NC(=O)CCCCCCCCCCCCCCCCCCC(=O)O)C(=O)O)NC(=O)[C@H](CC(=O)O)NC(=O)[C@H](CC(C)C)NC(=O)[C@@H](NC(=O)[C@@H](NC(=O)[C@H](C)NC(=O)[C@H](CC(C)C)NC(=O)[C@H](CCC(=O)O)NC(=O)[C@H](CO)NC(=O)[C@@H](NC(=O)[C@H](Cc1ccccc1)NC(=O)[C@@H](NC(=O)CNC(=O)[C@H](CCC(=O)O)NC(=O)C(C)(C)NC(=O)[C@@H](N)Cc1c[nH]cn1)[C@@H](C)O)[C@@H](C)O)[C@@H](C)O)[C@@H](C)CC)C(=O)N[C@@H](C)C(=O)N[C@@H](Cc1c[nH]c2ccccc12)C(=O)N[C@@H](CC(C)C)C(=O)N[C@H](C(=O)N[C@@H](CCC(N)=O)C(=O)N[C@@H](Cc1c[nH]cn1)C(=O)N[C@@H](CCCCN)C(=O)N[C@H](C(=O)N[C@H](C(=O)N[C@@H](CC(=O)O)C(=O)O)[C@@H](C)O)[C@@H](C)CC)[C@@H](C)CC [Compound 51] (HELM PEPTIDE1{H.[Aib].E.G.T.F.T.S.E.L.A.T.I.L.D.K.Q.A.A.R.D.F.I.A.W.L.I.Q.H.K.I.T.D}|PEPTIDE2{[O=C(O)CCCCCCCCCCCCCCCCCCC(=O)[*:2]].[gGlu].K.E.K}$PEPTIDE1,PEPTIDE2,16:R3-5:R2$$$V2.0)	0.02	0.18	–	–	–	–	–	–	–	–	–
CC[C@H](C)[C@H](NC(=O)[C@H](Cc1ccccc1)NC(=O)[C@H](CC(=O)O)NC(=O)[C@H](CCCNC(=N)N)NC(=O)[C@H](C)NC(=O)[C@H](C)NC(=O)[C@H](CCC(N)=O)NC(=O)[C@H](CCCCNC(=O)CC[C@H](NC(=O)CCCCCCCCCCCCCCCCC(=O)O)C(=O)O)NC(=O)[C@H](CC(=O)O)NC(=O)[C@H](CC(C)C)NC(=O)[C@@H](NC(=O)[C@@H](NC(=O)[C@H](C)NC(=O)[C@H](CC(C)C)NC(=O)[C@H](CCC(=O)O)NC(=O)[C@H](CO)NC(=O)[C@H](CO)NC(=O)[C@H](Cc1ccccc1)NC(=O)[C@H](CO)NC(=O)CNC(=O)[C@H](CC(=O)O)NC(=O)C(C)(C)NC(=O)[C@@H](N)Cc1c[nH]cn1)[C@@H](C)O)[C@@H](C)CC)C(=O)N[C@@H](C)C(=O)N[C@@H](Cc1c[nH]c2ccccc12)C(=O)N[C@@H](CC(C)C)C(=O)N[C@H](C(=O)N[C@@H](CCC(N)=O)C(=O)N[C@@H](Cc1c[nH]cn1)C(=O)N[C@@H](CCCCN)C(=O)N[C@H](C(=O)N[C@H](C(=O)N[C@@H](CC(=O)O)C(=O)O)[C@@H](C)O)[C@@H](C)CC)[C@@H](C)CC [A, reference compound] (HELM PEPTIDE1{H.[Aib].D.G.S.F.S.S.E.L.A.T.I.L.D.K.Q.A.A.R.D.F.I.A.W.L.I.Q.H.K.I.T.D}|PEPTIDE2{[O=C(O)CCCCCCCCCCCCCCCCC(=O)[*:2]].[gGlu]}$PEPTIDE1,PEPTIDE2,16:R3-2:R2$$$V2.0)	0.49	0.083	–	–	–	–	–	–	–	C (<80% normalized stability)	B (>80% stability)

Source: patent publication US11395847B2, “Acylated GLP-1/GLP-2 dual agonists” (Zealand Pharma A/S, priority 2016, dated 2022)
